Assay results taken from patent US20250120967A1, “TYROSINE KINASES INHIBITORS AND USES THEREOF” (GREAT NOVEL THERAPEUTICS BIOTECH & MEDICALS CORPORATION, priority 2023, published 2025).

Experiments:
Experiment in all cases: Tyrosine kinase inhibition assay
Assay type in all cases: biochemical
Settings in all cases: single concentration 1.0 μM, read-out: percent inhibition
FYN A = FYN A (Homo sapiens, UniProt P06241)
Method in brief: (§1)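 Peptide/kinase mixtures and ATP (apparent Km) are combined in 50 mM HEPES pH 7.5 kinase buffer with 10 mM MgCl2, 1 mM EGTA and 0.01% BRIJ-35, compound at 1.0 μM in 1% DMSO. Development reagent is then added and percent inhibition calculated.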

AKT1 (PKB alpha) = AKT1 (PKB alpha) (Homo sapiens, UniProt P31749)
Chain of AKT1 (PKB alpha) (P31749 whole entry): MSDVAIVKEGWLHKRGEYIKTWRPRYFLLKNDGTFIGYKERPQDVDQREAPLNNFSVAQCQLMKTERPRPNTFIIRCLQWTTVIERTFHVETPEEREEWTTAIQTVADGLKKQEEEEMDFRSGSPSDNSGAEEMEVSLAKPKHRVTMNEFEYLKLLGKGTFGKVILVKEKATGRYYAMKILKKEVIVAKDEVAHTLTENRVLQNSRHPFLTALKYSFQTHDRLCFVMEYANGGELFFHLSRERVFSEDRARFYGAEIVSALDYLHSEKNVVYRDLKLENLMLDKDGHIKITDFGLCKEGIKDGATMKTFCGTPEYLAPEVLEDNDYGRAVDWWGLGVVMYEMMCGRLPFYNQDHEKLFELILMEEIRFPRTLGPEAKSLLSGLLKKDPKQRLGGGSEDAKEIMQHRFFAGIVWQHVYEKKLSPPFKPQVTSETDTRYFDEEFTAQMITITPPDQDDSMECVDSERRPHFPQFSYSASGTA
Method in brief: as §1

FGFR4 = FGFR4 (Homo sapiens, UniProt P22455)
Chain of FGFR4 (P22455 22-802): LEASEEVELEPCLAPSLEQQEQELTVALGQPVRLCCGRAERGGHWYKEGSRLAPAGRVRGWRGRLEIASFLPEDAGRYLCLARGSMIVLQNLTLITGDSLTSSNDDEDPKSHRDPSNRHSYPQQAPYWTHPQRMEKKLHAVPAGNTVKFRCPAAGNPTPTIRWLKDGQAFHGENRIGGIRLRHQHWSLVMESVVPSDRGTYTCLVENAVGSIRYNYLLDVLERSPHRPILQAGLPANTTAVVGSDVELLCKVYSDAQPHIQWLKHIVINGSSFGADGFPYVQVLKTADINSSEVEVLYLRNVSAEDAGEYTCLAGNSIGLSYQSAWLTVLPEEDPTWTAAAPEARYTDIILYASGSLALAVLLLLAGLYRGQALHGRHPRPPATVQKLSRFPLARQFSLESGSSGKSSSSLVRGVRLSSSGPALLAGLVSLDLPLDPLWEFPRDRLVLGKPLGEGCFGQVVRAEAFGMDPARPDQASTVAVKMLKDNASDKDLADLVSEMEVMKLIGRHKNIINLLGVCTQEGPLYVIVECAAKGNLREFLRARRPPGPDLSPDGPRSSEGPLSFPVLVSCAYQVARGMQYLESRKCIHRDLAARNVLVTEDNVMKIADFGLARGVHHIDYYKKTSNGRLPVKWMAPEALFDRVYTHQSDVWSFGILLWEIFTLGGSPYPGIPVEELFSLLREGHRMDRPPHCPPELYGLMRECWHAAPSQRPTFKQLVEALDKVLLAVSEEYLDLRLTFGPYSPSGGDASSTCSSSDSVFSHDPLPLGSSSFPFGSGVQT
Method in brief: as §1

RAF1 (cRAF) Y340D Y341D = RAF1 (cRAF) Y340D Y341D (Homo sapiens, UniProt P04049, Y340D/Y341D)
Method in brief: as §1

TNK2 (ACK) = TNK2 (ACK) (Homo sapiens, UniProt Q07912)
Method in brief: as §1

JAK1 = JAK1 (Homo sapiens, UniProt P23458)
Method in brief: as §1

SYK = SYK (Homo sapiens, UniProt P43405)
Method in brief: as §1

[1] = biological target: PIK3CB/PIK3R1 (p110 beta/p85 alpha) (Homo sapiens, UniProt P42338)
Chain of PIK3CB/PIK3R1 (p110 beta/p85 alpha) (P42338 whole entry): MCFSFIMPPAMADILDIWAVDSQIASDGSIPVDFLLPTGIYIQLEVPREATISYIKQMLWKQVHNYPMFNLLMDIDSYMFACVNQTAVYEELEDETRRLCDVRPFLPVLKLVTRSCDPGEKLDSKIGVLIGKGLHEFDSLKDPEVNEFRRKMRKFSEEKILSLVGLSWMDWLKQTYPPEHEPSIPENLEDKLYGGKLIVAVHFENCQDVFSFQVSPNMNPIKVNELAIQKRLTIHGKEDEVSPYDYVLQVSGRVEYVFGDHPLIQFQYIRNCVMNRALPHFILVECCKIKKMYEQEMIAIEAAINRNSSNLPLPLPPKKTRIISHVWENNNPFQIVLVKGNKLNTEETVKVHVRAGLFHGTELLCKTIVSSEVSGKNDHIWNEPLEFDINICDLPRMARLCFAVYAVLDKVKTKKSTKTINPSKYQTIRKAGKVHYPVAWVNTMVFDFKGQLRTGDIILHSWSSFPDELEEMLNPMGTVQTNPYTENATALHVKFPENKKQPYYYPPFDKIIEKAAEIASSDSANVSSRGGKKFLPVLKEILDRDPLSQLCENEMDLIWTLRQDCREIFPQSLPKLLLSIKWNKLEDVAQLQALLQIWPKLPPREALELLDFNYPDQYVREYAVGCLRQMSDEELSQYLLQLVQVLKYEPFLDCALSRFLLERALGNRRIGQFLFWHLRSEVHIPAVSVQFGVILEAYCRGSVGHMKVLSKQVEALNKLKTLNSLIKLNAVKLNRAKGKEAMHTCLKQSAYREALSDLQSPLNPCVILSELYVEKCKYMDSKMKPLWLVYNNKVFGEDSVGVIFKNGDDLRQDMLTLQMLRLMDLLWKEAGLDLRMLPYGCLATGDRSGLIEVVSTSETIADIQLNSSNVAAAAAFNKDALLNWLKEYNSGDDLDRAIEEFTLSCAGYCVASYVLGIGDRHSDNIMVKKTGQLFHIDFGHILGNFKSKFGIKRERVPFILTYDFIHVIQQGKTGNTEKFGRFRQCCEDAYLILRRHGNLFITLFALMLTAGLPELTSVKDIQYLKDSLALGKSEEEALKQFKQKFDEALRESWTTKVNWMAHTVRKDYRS
Chain of PIK3CB/PIK3R1 (p110 beta/p85 alpha) (P27986 whole entry partner): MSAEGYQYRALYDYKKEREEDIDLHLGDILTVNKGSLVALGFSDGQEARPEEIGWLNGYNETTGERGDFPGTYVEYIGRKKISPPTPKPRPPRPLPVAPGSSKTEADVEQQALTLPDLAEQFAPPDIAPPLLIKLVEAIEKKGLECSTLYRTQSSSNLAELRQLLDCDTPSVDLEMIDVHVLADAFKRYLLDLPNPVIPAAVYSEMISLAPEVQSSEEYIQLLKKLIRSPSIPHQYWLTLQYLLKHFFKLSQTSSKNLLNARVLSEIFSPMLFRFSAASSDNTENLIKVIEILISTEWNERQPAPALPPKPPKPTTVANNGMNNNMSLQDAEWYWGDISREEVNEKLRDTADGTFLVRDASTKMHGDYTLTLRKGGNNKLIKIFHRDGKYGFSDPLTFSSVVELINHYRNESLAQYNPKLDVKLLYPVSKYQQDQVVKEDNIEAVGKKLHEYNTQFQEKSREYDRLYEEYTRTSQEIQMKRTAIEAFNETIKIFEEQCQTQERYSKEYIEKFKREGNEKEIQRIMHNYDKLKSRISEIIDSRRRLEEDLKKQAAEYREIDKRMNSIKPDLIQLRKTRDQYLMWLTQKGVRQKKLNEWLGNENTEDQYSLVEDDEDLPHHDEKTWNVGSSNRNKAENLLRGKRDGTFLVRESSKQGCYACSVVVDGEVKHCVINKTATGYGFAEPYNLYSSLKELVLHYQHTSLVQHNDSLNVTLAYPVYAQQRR
Method in brief: as §1

MAP4K3 (GLK) = biological target: T1, MAP4K3 (GLK) (Homo sapiens, UniProt Q8IVH8)
T1 sequence (Q8IVH8 1-894): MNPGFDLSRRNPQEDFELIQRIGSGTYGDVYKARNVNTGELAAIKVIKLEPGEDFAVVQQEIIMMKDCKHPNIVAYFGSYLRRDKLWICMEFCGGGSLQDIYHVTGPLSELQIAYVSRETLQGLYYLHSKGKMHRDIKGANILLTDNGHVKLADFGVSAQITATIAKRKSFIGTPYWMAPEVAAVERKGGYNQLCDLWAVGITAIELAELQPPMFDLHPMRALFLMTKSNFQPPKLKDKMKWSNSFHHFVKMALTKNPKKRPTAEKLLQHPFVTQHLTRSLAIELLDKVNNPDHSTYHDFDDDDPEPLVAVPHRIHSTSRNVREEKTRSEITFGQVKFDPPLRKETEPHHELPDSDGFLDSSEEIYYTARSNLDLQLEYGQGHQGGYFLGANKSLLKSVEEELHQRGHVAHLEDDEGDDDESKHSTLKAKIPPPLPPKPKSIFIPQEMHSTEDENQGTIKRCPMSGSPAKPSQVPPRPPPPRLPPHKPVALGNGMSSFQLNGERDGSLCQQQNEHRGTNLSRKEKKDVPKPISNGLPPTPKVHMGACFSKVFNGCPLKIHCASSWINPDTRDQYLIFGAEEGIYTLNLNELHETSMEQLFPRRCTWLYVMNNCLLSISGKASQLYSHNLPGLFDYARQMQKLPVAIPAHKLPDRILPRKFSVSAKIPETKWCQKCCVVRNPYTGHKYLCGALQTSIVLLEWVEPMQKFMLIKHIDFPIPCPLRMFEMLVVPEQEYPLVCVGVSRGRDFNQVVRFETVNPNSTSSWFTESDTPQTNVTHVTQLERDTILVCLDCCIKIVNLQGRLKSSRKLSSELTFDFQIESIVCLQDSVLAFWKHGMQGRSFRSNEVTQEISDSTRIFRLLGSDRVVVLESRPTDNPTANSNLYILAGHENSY
Method in brief: as §1

FGFR3 = FGFR3 (Homo sapiens, UniProt P22607)
Chain of FGFR3 (P22607 23-806): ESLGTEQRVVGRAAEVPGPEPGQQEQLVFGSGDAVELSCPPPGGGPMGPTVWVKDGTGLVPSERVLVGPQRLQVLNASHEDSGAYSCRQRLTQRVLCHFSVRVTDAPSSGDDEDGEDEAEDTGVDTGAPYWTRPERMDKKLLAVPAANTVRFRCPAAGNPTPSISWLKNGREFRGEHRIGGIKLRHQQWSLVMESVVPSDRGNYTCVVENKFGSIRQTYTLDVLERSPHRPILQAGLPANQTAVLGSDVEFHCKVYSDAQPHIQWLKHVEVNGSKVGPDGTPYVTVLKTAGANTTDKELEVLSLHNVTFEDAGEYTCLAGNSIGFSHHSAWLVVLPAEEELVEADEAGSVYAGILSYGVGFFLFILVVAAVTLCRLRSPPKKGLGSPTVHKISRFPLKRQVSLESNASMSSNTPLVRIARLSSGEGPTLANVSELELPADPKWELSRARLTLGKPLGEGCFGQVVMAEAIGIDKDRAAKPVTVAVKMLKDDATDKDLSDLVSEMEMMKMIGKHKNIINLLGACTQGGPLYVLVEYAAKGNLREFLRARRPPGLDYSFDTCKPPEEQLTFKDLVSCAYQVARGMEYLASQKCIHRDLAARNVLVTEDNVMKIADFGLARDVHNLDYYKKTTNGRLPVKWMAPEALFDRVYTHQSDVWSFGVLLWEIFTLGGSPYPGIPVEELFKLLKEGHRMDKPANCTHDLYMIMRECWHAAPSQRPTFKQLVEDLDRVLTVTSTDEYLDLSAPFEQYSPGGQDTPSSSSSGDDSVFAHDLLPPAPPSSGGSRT
Method in brief: as §1

TYK2 = TYK2 (Homo sapiens, UniProt P29597)
Chain of TYK2 (P29597 whole entry): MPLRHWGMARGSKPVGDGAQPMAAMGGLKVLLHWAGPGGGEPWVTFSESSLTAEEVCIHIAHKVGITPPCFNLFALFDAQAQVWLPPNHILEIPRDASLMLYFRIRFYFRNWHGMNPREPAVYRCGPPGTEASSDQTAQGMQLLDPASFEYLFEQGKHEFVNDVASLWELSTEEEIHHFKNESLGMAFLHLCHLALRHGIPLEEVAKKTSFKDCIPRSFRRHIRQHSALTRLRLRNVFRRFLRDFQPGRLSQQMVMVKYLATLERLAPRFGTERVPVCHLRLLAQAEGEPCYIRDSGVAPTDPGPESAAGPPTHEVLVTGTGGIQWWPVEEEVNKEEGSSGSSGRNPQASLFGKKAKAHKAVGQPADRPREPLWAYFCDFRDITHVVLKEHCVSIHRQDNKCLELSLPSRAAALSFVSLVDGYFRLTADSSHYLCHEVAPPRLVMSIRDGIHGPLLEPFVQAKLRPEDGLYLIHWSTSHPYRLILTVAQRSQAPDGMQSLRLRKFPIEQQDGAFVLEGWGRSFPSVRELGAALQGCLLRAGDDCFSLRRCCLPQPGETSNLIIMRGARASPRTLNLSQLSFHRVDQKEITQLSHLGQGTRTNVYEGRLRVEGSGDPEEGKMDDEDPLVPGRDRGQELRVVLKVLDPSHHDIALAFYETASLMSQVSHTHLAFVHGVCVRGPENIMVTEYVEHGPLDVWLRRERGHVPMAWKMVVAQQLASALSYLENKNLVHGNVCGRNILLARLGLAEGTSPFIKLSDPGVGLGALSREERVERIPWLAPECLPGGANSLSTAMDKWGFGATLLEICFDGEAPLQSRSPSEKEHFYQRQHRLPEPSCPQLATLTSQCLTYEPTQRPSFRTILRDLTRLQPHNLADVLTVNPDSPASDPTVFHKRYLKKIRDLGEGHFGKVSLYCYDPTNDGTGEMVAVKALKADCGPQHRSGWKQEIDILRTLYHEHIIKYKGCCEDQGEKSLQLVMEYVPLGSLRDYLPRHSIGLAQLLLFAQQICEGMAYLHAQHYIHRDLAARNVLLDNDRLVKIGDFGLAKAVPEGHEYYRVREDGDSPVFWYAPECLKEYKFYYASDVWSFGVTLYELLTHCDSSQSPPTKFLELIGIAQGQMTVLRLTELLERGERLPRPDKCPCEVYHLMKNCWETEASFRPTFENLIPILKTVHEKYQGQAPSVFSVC
Method in brief: as §1

SRMS (Srm) = SRMS (Srm) (Homo sapiens, UniProt Q9H3Y6)
Method in brief: as §1

SMILES | inhibition at 1 µM (FYN A) [%] | inhibition at 1 µM (AKT1 (PKB alpha)) [%] | inhibition at 1 µM (FGFR4) [%] | inhibition at 1 µM (RAF1 (cRAF) Y340D Y341D) [%] | inhibition at 1 µM (TNK2 (ACK)) [%] | inhibition at 1 µM (JAK1) [%] | inhibition at 1 µM (SYK) [%] | inhibition at 1 µM [1] [%] | inhibition at 1 µM (MAP4K3 (GLK)) [%] | inhibition at 1 µM (FGFR3) [%] | inhibition at 1 µM (TYK2) [%] | inhibition at 1 µM (SRMS (Srm)) [%]
COc1cc2nccc(Oc3ccc(NC(=O)C4(C(=O)Nc5ccc(F)cc5)CC4)cc3)c2cc1OC [Cabozantinib, reference compound] | 74 | 3 | -2 | 66 | 61 | 0 | 16 | 2 | 48 | 16 | 9 | 96
COc1cc2nccc(Oc3ccc(NC(=O)C4(NC(=O)c5ccc(F)cc5)CC4)cc3F)c2cc1OC [Cbo-02, N-(1-((4-((6,7-diMethoxyquinolin-4-yl)oxy)-3-fluorophenyl)carbamoyl)cyclopropyl)-4-fluorobenzamide] | 30 | 2 | 0 | -8 | 63 | 1 | 14 | 3 | 43 | 4 | 7 | 12
COc1cc2nccc(Oc3ccc(NC(=O)C4(NC(=O)c5ccc(F)cc5)CC4)cc3F)c2cc1Oc1ccc(N)cc1F [Cbo-10] | 47 | 0 | 1 | 3 | 95 | 2 | 24 | 22 | 59 | 19 | 9 | 74
COc1cc2nccc(Oc3ccc(NC(=O)C4(NC(=O)c5ccc(F)cc5)CC4)cc3F)c2cc1Oc1c(F)cc(N)cc1F [Cbo-14] | 57 | 2 | -1 | 3 | 96 | 1 | 27 | 0 | 58 | 19 | 16 | 84
COc1cc2nccc(Oc3ccc(NC(=O)C4(C(=O)Nc5ccc(F)cc5)CC4)cc3F)c2cc1Oc1ccc(N)cc1F [Cbo-23] | 70 | 4 | 13 | 40 | 89 | 4 | 15 | -4 | 41 | 13 | 7 | 99
